Reference: patent US5106870A, “Methods for the use of thromboxane A2 antagonists” (National Research Development Corporation, priority 1990, dated 1992)

Key:
[1] = test system: U-46619-induced platelet aggregation; assay: Inhibition of U-46619-induced platelet aggregation in rat platelet rich plasma (in vitro); assay type: cell-based; conditions: rat PRP
Protocol: a. Inhibition of U-46619-induced platelet aggregation (rat)
Platelet rich plasma (PRP) was prepared from heparanized whole blood (5 units/ml) drawn from the abdominal aorta of ether anesthetized rats. PRP was prepared by centrifugation (Sorvall RC2B, DuPont, Wilmington, Del.) of the whole blood at 150×g for 10 min. Platelet poor plasma (PPP) was prepared by centrifugation at 1200×g for 20 min. Aliquots of PRP and PPP were used to standardize the aggregometer (Payton, Buffalo, N.Y., model 300B) with the recorder (Riken Denshi 2 channel recorder, Payton, model SP-H5P) for measurement of minimum and maximum light transmittance, respectively.
Platelet aggregation was measured as an increase in light transmittance. PRP (390 μl aliquot +5 μl compound vehicle) was preincubated for 1 min. at 37° C., with stirring at 900 rpm in the aggregometer. The vehicle control response was obtained by adding U-46619 (Cayman Chemical, Ann Arbor, Mich., 1-2 units/cuvette/10 μl) to the aliquot of PRP. Aggregation was monitored until maximum aggregation was achieved (approximately 3 min. following the addition of U-46619). Amount of aggregation was measured by grids on the strip chart.
Compounds were dissolved in either ethanol (ETOH) or Na2 CO3 (0.1M) and preincubated at the desired concentration in PRP for 1 min. at 37° C. with stirring. At the end of the preincubation, U-46619 was added and aggregation measured. Inhibition of aggregation by compound was calculated as percent inhibition of the control aggregation response to U-46619. Dose response curves were generated and IC50 's calculated by linear regression.

[2] = test system: U-46619 induced platelet aggregation; assay: Ex vivo inhibition of U-46619 induced platelet aggregation, intragastric; assay type: in vivo; conditions: rat
Protocol: (§1) II. Ex vivo--(rat) Inhibition of U-46619 induced platelet aggregation
Compounds dissolved in Na Carbonate were administered to conscious rats with an I.G. tube. Fifteen minutes post administration (time previously determined to show maximum effect), rats were anesthetized with ether and blood was sampled from the abdominal aorta, PRP was prepared as described in II a.

[3] = test system: U-46619 induced platelet aggregation; assay: Ex vivo inhibition of U-46619 induced platelet aggregation, intravenous; assay type: in vivo; conditions: rat
Protocol: as §1
Rats were anesthetized with ether and the jugular vein exposed. Compound dissolved in 0.1M Na Carbonate was injected as a bolus into the jugular vein. Blood (5 ml, heparanized) was sampled 30 sec. later from the abdominal aorta. PRP was prepared by quick centrifugation (Eppendorf, model 5415 at 12,000 rpm for 5 sec. PPP was prepared by centrifugation for 2 min. PRP was diluted 1:1 with PPP from similarly treated animals. Aggregation was monitored for 5 min. and inhibition was determined as previously described.

human washed platelets = assay: Analysis of partial agonism (shape change/aggregation) in human washed platelets; assay type: cell-based; conditions: 5 and 10 min incubation
Protocol: b. Analysis of partial agonism with SC-46985 (human washed platelets)
Sixty ml of blood were drawn into 1/10 volume of CCD (100 mM Na Citrate and 136 mM glucose, pH 6.5 with HCl) and PRP prepared as described above. PRP was placed on ice for 15 min. One half of the volume of CCD was added and recentrifuged. The platelet pellet was gently resuspended in 1/2 the original volume of PRP in a 0° C. modified Tangen-Hepes-BSA buffer (145 mM NaCl, 5 mM KCl, 0.05 mM CaCl2, 0.1 mM MgCl2, 11 mM glucose, 15 mM Hepes, 1 mg/ml bovine serum albumin, pH adjusted to 7.4 with NaOH). The resuspended platelets were incubated undisturbed at 37° C. for 30 min. After incubation a platelet count was determined and adjusted to 3×10^8 cells/ml with the Tangen-Hepes-BSA buffer.
425 μl of the washed human platelet suspension was incubated in the aggregometer in the presence of 16 mM CaCl2 (50 μl) and SC-46985 for 5 and 10 min. […] (In a study similar to (a) above, aliquots of human washed platelets were incubated with various concentrations of SC-46985 and U-46619 to determine dose-related inhibition of aggregation).

In the case of CC(=NNC(=S)Nc1ccccc1)[C@@H]1[C@H]2CC[C@H](C2)[C@H]1C/C=C\CCCC(=O)O (relative stereo) [SC-44161, (±)7-[3α[[(Phenylamino)thioxomethyl]hydrazono]ethyl]1α,4α-bicyclo[2.2.1]hept-2β-yl]-5Z-heptenoic acid], the “more potent in aqueous solution than when dissolved in ethanol” value ([1]; aqueous (Na Carbonate) vs ethanol) is reported as 5-10 fold.
In the case of CC(=NNC(=S)Nc1ccccc1)[C@@H]1[C@H]2CC[C@H](C2)[C@H]1C/C=C\CCCC(=O)O [SC-46984, 7-[3α-[1-[[(Phenylamino)thioxomethyl]hydrazono]ethyl]-1R,1α,4α-bicyclo-[2.2.1]hept-2β-yl]-5Z-heptenoic acid], the “more potent than SC-44161” value ([1]; in vitro) is reported as “approximately 100 times”, the “more potent than SC-44161 (I.G. ED50)” value [2] is reported as “approximately 2.8 times” and the “more potent than SC-44161 (ED50)” value [3] is reported as “approximately 3.5 times”.
For CC(=NNC(=S)Nc1ccccc1)[C@H]1[C@@H]2CC[C@@H](C2)[C@@H]1C/C=C\CCCC(=O)O [SC-46985], the “partial agonist activity (shape change or aggregation)” value (human washed platelets) was “no evidence of shape change or aggregation” and the “less potent than SC-44161 (ED50)” value [3] was “approximately 1.5 times”.
For CC(=NNC(=S)Nc1ccccc1)[C@@H]1[C@H]2CC[C@H](C2)[C@H]1C/C=C/CCCC(=O)O [SC-47721, 7-[3α-[1-[[(Phenylamino)thioxomethyl]hydrazono]ethyl]-1R,1α,4α-bicyclo-[2.2.1]hept-2β-yl]-5E-heptenoic acid], the “more potent than SC-44161” value ([1]; in vitro) was 10-50 times, the “potency compared with SC-46984” value ([1]; in vitro) was “less potent than SC-46984” and the “inhibition of U-46619 induced aggregation” value ([2]; 1 mg/kg, 15 min post administration) was 37.5%.
